A short description of data set [1]: AUC of SPP100 following single intravenous dose of [14C] aliskiren hemifumarate at 1 mg.Kg-1 level in marmoset. Format: ADME, organism-based, Callithrix jacchus, Plasma. Conditions: in vivo.
Data set [2] in a line: Excretion (0-168h) of aliskiren in urine following intravenous administration of [14C] aliskiren hemifumarate at 1 mg.Kg-1 level in marmoset. The class given is ADME, organism-based, Callithrix jacchus. Conditions: in vivo.
The nature of data set [3]: Excretion (0-72h) of aliskiren in faeces following oral administration of [14C] aliskiren hemifumarate at 3 mg.Kg-1 level in marmoset. Conditions: in vivo. Format: ADME, organism-based, Callithrix jacchus, Feces.
The target of data set [4] is T1, CYP2A6 (Homo sapiens, UniProt P11509).
T1 sequence (P11509 whole entry): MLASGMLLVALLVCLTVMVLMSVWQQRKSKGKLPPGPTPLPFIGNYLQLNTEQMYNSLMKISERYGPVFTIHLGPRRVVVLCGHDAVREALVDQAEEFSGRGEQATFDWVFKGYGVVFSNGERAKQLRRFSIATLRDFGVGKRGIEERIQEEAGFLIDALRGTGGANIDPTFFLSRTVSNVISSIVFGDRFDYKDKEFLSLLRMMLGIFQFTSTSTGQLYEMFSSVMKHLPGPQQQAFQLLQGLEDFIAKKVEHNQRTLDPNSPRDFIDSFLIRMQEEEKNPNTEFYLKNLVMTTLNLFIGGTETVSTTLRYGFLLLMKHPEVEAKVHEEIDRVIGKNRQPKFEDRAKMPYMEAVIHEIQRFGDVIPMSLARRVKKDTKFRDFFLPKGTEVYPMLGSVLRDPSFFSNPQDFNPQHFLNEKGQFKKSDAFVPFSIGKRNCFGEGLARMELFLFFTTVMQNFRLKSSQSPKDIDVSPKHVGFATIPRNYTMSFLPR
Nature of the data set: Inhibitory activity of 20 uM SPP100 on 39 Pmoles of cDNA-derived CYP2A6 enzyme in microsome prepared from human lymphoblastoid cell line. The class given is ADME, microsomes. Also on record: conc 20 uM, interact cpd conc 3 uM. Conditions: probe coumarine.

The target of data set [5] is T1, CYP2A6. Nature of the data set: Inhibitory activity of 200 uM SPP100 on 37 Pmoles of cDNA-derived CYP2A6 enzyme in microsome prepared from human lymphoblastoid cell line. Format: ADME, microsomes. On the set-up: conc 200 uM, interact cpd conc 3 uM. To be noted: probe coumarine.
The target of data set [6] is T2, CYP2C9 (Homo sapiens, UniProt P11712). Put plainly: Inhibitory activity of 20 uM SPP100 on 227 Pmoles of cDNA-derived CYP2C9 enzyme in microsome prepared from human lymphoblastoid cell line. Format: ADME, microsomes. On the set-up: conc 20 uM, interact cpd conc 6 uM. To be noted: probe diclofenac.
The target in data set [7] is T2, CYP2C9. Nature of the data set: Inhibitory activity of 20 uM SPP100 on 258 Pmoles of cDNA-derived CYP2C9 enzyme in microsome prepared from human lymphoblastoid cell line. The class given is ADME, microsomes. Also on record: conc 20 uM, interact cpd conc 6 uM. Conditions: probe diclofenac.
Data set [8] can be described thus: % SPP100 recovered in urine following single intravenous administration of 10 mg.Kg-1 [14C] aliskiren hemifumarate in male rat. Format: ADME, organism-based, HAN:WIST(SPF). To be noted: in vivo.
Data set [9] can be described thus: % of radioactivity recovered as aliskiren in urine following intravenous administration of [14C] aliskiren hemifumarate at 10 mg.Kg-1 level in rat. Format: ADME, organism-based, Albino HAN:WIST. Conditions: in vivo.
Data set [10] is described as follows: Apparent terminal half-life (0-168h) of total radioactivity following single oral administration of [14C] aliskiren hemifumarate at 3 mg.Kg-1 level in marmoset. Format: ADME, organism-based, Callithrix jacchus, Plasma. To be noted: in vivo.
Data set [11] is described as follows: AUC of [14C] aliskiren hemifumarate following single intravenous dose of [14C] aliskiren hemifumarate at 10 mg.Kg-1 level in mouse. The class given is ADME, organism-based, TgRasH2, Plasma. To be noted: in vivo.
Data set [12] can be described thus: Excretion of radioactivity (24-48h) in urine following single intravenous dose of 10 mg.Kg-1 [14C] aliskiren hemifumarate in mouse. The class given is ADME, organism-based, TgRasH2. To be noted: in vivo.
A short description of data set [13]: Mean excretion of radioactivity (24-48h) in urine and faeces following single oral dose of 500 mg.Kg-1 [14C] aliskiren hemifumarate in mouse. To be noted: in vivo. Format: ADME, organism-based, TgRasH2, Urine/Feces.
Data set [14] can be described thus: Mean excretion of radioactivity (24-48h) in urine and faeces following single intravenous dose of 10 mg.Kg-1 [14C] aliskiren hemifumarate in mouse. Conditions: in vivo. Format: ADME, organism-based, TgRasH2, Urine/Feces.
Data set [15] is described as follows: % of radioactivity (48h) recovered in bile of receiver rat following duodenal infusion of radioactivity through bile from donor rat treated with single intravenous administration of 10 mg.Kg-1 [14C] aliskiren hemifumarate. The class given is ADME, organism-based, HAN:WIST(SPF). To be noted: in vivo.
Data set [16] can be described thus: Elimination (0-96h) of radioactivity via biliary route following intravenous administration of [14C] aliskiren hemifumarate at 10 mg.Kg-1 level in rat. Format: ADME, organism-based, Albino HAN:WIST, Bile. Conditions: in vivo.
Data set [17] is described as follows: Excretion of radioactivity (24-48h) in faeces following single oral dose of 100 mg.Kg-1 [14C] aliskiren hemifumarate in rat. The class given is ADME, organism-based, Albino HAN:WIST, Feces. Conditions: in vivo.
Data set [18] in a line: Cmax of radioactivity following repeated oral administration of [14C] aliskiren hemifumarate at 100 mg.Kg-1 level studied after 2h of dosing on day 10 in rat. The class given is ADME, organism-based, Albino HAN:WIST. Conditions: in vivo, read-out: Cmax(10).
Data set [19] can be described thus: Concentration of radioactivity in the kidney medulla following repeated oral administration of [14C] aliskiren hemifumarate at 100 mg.Kg-1 level studied at 2h after 10th dose in rat. Format: ADME, organism-based, Albino HAN:WIST, Renal medulla. To be noted: in vivo.
Data set [20] in a line: Cmax (0-168h) of total radioactivity following single intravenous administration of [14C] aliskiren hemifumarate at 1 mg.Kg-1 level in marmoset. Format: ADME, organism-based, Callithrix jacchus, Plasma. To be noted: in vivo.
A short description of data set [21]: AUC of aliskiren hemifumarate following single dosing of SPP100B oral solution at 80 mg level studied on day 1 in men. Format: ADME, organism-based. To be noted: male, human, plasma.
Data set [22] is described as follows: Effect of 2 week oral dosing of aliskiren hemifumarate at 10 mg.Kg-1 level on hematological parameter values in male Callithrix jacchus. To be noted: marmoset, in vivo, 336 h. Format: toxicity, organism-based, Plasma.
The nature of data set [23]: Cmax of aliskiren hemifumarate following 2 week oral dosing of aliskiren hemifumarate at 10 mg.Kg-1 level studied on day 1 in male Callithrix jacchus. Format: ADME, organism-based. Conditions: marmoset, plasma.
Data set [24] is described as follows: Cmax of aliskiren hemifumarate following 2 week oral dosing of aliskiren hemifumarate at 10 mg.Kg-1 level studied on […] in male Callithrix jacchus. The class given is ADME, organism-based. To be noted: marmoset, plasma.
Data set [25] is described as follows: Effect of 4 week oral dietary dosing of aliskiren hemifumarate at 2000 mg.Kg-1 level on density of uterine gland in female mouse. Conditions: in vivo, 672 h. Format: toxicity, organism-based, CB6F1-TGrasH2, Endometrial gland.
Data set [26] is described as follows: AUC/dose (0-96h) of unlabeled aliskiren hemifumarate following intravenous administration of aliskiren hemifumarate at 10 mg.Kg-1 level in rat. The class given is ADME, organism-based, Albino HAN:WIST, Plasma. To be noted: in vivo.
Data set [27] can be described thus: Cmax/dose of aliskiren hemifumarate following 4 week oral dietary dosing of aliskiren hemifumarate at 500 mg.Kg-1 level in male mouse. The class given is ADME, organism-based, CB6F1-TGrasH2. To be noted: in vivo, 672 h.
The nature of data set [28]: AUC (0-24h) of aliskiren hemifumarate following 4 week oral dietary dosing of aliskiren hemifumarate at 2000 mg.Kg-1 level in female mouse. The class given is ADME, organism-based. To be noted: CB6F1-TGrasH2, mouse, plasma.
Data set [29] is described as follows: Tmax of aliskiren hemifumarate following 2 week oral dosing of aliskiren hemifumarate at 50 mg.Kg-1 level studied on day 1 in male Callithrix jacchus. The class given is ADME, organism-based. To be noted: marmoset, plasma.
Data set [30] can be described thus: Tmax of aliskiren hemifumarate following 2 week oral dosing of aliskiren hemifumarate at 50 mg.Kg-1 level studied on day 14 in male Callithrix jacchus. Format: ADME, organism-based. To be noted: marmoset, plasma.
Data set [31] in a line: AUC (0-24h)/dose of aliskiren hemifumarate following 4 week oral dietary dosing of aliskiren hemifumarate at 2000 mg.Kg-1 level in female mouse. Format: ADME, organism-based, CB6F1-TGrasH2, Plasma. Conditions: in vivo.
A short description of data set [32]: AUCspec of aliskiren hemifumarate following 2 week oral dosing of aliskiren hemifumarate at 10 mg.Kg-1 level studied on day 1 in female Callithrix jacchus. Conditions: marmoset, in vivo, 336 h. The class given is ADME, organism-based, Plasma.
A short description of data set [33]: AUCspec of aliskiren hemifumarate following 2 week oral dosing of aliskiren hemifumarate at 100 mg.Kg-1 level studied on day 14 in male Callithrix jacchus. Format: ADME, organism-based, Plasma. Conditions: marmoset, in vivo, 336 h.

The values below come from ChEMBL document CHEMBL3508693 (2016).

Usually AUC stands for concentration integrated over time. Low values mean less exposure, high ones more exposure. As a reminder, the inhibition is the relative decrease from the control value, in per cent. As usually defined, the Cmax is the highest concentration seen after dosing. Usually AUC(0-t) stands for the area under the concentration-time curve up to a stated or last time point. What is called Tmax is the time at which the peak concentration occurs.

T2 sequence (P11712 whole entry): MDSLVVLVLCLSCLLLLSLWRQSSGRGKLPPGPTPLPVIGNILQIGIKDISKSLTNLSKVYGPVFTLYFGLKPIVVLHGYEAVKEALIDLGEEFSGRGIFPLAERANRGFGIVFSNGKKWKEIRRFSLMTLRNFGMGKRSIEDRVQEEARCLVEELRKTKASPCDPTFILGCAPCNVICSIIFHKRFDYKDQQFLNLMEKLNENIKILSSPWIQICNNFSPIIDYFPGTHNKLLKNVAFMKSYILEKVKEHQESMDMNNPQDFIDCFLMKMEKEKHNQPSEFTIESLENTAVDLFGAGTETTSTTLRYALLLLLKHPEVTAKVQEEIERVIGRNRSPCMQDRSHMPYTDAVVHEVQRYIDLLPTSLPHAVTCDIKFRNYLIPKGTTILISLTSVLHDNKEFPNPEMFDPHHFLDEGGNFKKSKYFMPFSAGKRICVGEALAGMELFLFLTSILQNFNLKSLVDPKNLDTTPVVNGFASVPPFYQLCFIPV

As to `COCCCOc1cc(C[C@@H](C[C@H](N)[C@@H](O)C[C@H](C(=O)NCC(C)(C)C(N)=O)C(C)C)C(C)C)ccc1OC`, the exposure (AUC) in [1] is 23806 ng·h/mL. Further, the Compound recovery is reported as 3% in data set [2], 78% in data set [3], 79.8% in data set [8] and > 2% in [9]. In addition, the inhibition at 20 µM against CYP2A6 [4] is -2.1%; on CYP2C9 [6], 13.1%; against CYP2C9 [7] it was 1.3%. In addition, on CYP2A6 [5], the inhibition at 200 µM amounted to 2.6%.
Turning to `COCCCOc1cc(C[C@@H](C[C@H](N)[C@@H](O)C[C@H](C(=O)NCC([14CH3])([14CH3])C(N)=O)C(C)C)C(C)C)ccc1OC.O=C(O)/C=C/C(=O)O`, the t1/2 in data set [10] came out at 45.5 h. Further, the area under the curve (AUC) in data set [11] stood at 5.01 µM·h. The Radiolabel recovery is on record as 9.49% in [12]; 10.51% in data set [13]; 7.51% in data set [14]; 2.2% in data set [15]; “OUTCOME = Observed/Elimination of radioactivity was mainly via biliary route” in data set [16]; 0.68% in data set [17]. Besides, the Radiolabel recovery result in data set [19] was “OUTCOME = Detected”. Moreover, the Cmax in data set [18] is 0.473 µM; in data set [20], 11.4 µM.
For the compound `COCCCOc1cc(C[C@@H](C[C@H](N)[C@@H](O)C[C@H](C(=O)NCC(C)(C)C(N)=O)C(C)C)C(C)C)ccc1OC.COCCCOc1cc(C[C@@H](C[C@H](N)[C@@H](O)C[C@H](C(=O)NCC(C)(C)C(N)=O)C(C)C)C(C)C)ccc1OC.O=C(O)/C=C/C(=O)O` [ALISKIREN FUMARATE], the exposure (AUC) in [21] was determined as 96.4 ng·h/mL. Further, in data set [22], the Change in hematology entry is “OUTCOME = Hematological parameter values did not differ from control values. No animals died during the study”. The Cmax in data set [23] came to 3960 ng/mL; in [24], 5770 ng/mL. The “Change in density of uterine gland” value in data set [25] was “OUTCOME = Decreased. No animals died during the study”. Besides, the AUC normalised is recorded as 1.26 (umol.h/L)/(mg/kg) in [26], 5.88 ((ng/mL).hours)/(mg/kg/day) in [31], 2.13 ((ug.h.ml-1)/(mg/kg) in data set [32] and 1.09 ((ug.h.ml-1)/(mg/kg) in data set [33]. Also, the Cmax normalised in [27] is 0.624 (ng/mL)/(mg/kg/day). In data set [28], this compound had an exposure AUC(0-t) at 24 h of 11800 ng·h/mL. For the same compound, the Tmax in [29] came out at 1 h; in [30], 2 h.
